Laboratory results as given in patent publication US11530212B2, “Fluorescent probe compound for zinc ion, as well as preparation method and use thereof” (Wuyi University, priority 2019, dated 2022).

Columns and labels:
[1] = Fluorescence property test of probe with metal ion solution; conditions: Zn^2+ solution; CH3OH-H2O (v:v=1:1); FIG. 3
Method: (§1) The fluorescence property of the fluorescent probe compound according to the present disclosure was measured, including the following steps:
(§2) (1) Formulating a Probe Solution:
(§3) formulating a solution of 2-(7-(2,8-dimethyl quinoline-6-yl)-5,6,7,8-tetrahydro-1,8-naphthyridin-2-yl) phenol with a concentration of 100 μM in methanol, i.e. a probe solution, and stored at room temperature.
(§4) (2) Formulating Metal Ion Solutions: […]
(§5) the metal ions including: Mg^2+, Fe^2+, Cu^+, Cu^2+, Sn^4+, Co^2+, Mn^2+, K^+, Li^+, Ba^2+, Ca^2+, Cd^2+, Ni^2+, Fe^3+, Al^3+ and Zn^2+; and the respectively solutions of them were prepared from the corresponding hydrochloride salts thereof. Taking a certain amount of metal salts, dissolved in 10 mL of distilled water to formulate a 10-2 mol/L metal ion solution, and stored for later use.
(§6) (3) Fluorescence Property Test:
(§7) formulating solution to be tested: taking 0.5 mL of the formulated probe solution and 0.5 mL of the formulated metal ion solution, mixing with 4 mL solution of a CH3OH—H2O (v:v=1:1) to obtain a solution to be tested of the metal ion.
(§8) formulating blank solution: taking 0.5 mL of the formulated probe solution, mixed with solution of 2.5 mL water and 2 mL methanol.
(§9) analyzing the fluorescence intensity of solution to be tested by fluorescence spectrum, and the analysis result was shown in FIG. 3.

[2] = Fluorescence property test of probe with other metal ion solutions; conditions: Mg^2+, Fe^2+, Cu^+, Cu^2+, Sn^4+, Co^2+, Mn^2+, K^+, Li^+, Ba^2+, Ca^2+, Cd^2+, Ni^2+, Fe^3+ or Al^3+; CH3OH-H2O (v:v=1:1); FIG. 3
Method: as §1, §2, §3, §4, §5, §6, §7, §8, §9

[3] = Fluorescence titration with different concentrations of Zn^2+ (detection range and limit); conditions: Zn^2+ concentration 4×10^-6 M; FIG. 4
Method: Different concentrations of Zn^2+ were added into the probe solution formulated in step (1) to test the fluorescence property of the probe solution, so as to determine the detection range and detection limit for Zn^2+ of the fluorescent probe compound.

[4] = Competitive experiment: Zn^2+ detection in presence of other metal ions; conditions: Zn^2+ solution (10 NM) plus other metal ion of the same concentration; FIG. 3
Method: In order to further verify the specificity of the zinc ion fluorescent probe compound to the zinc ion, a competitive experiment was conducted: adding the Zn^2+ solution (10 NM) into the probe solution formulated in step (1) together with a solution of any other one of the aforesaid metal ions of the same concentration; testing the effects of other competitive ions on the Zn^2+ selectivity of the zinc ion fluorescent probe compound respectively. The test results were shown in FIG. 3 (all test solution was uniformly labeled as “zinc ion fluorescent probe compound+M+Zn”).

Q: What does the source list for `Cc1ccc2cc(C3CCc4ccc(-c5ccccc5O)nc4N3)cc(C)c2n1` (stereo not shown) [fluorescent probe compound, 2-(7-(2,8-dimethylquinoline-6-yl)-5,6,7,8-tetrahydro-1,8-naphthyridin-2-yl) phenol]?
A: fluorescence intensity change (F/F0) of the solution to be tested [1]: significant fluorescence decay; fluorescence intensity change (F/F0) of the solution to be tested [2]: changed slightly; fluorescence intensity of the compound [3]: dramatic decay; change of Zn^2+ detection before and after addition of other competitive ions [4]: almost no change
